Measured values from patent US8071592B2 (priority 2006, dated 2011).
Structures can show the parent of a compound that is named as a salt.

What follows are molecules tested on Mycobacterium tuberculosis H37Rv (assay: Mycobacterium tuberculosis H37Rv Inhibition Assay (resazurin, MIC)). Conditions: ATCC 25618 / H37Rv, 144 h, H37Rv strain (ATCC25618), Middlebrook 7H9+ADC medium, six days at 37° C., resazurin fluorescence after 48 hours, read-out: MIC value.
Type: cell-based
Molecule O=c1cnc2ccc(F)cc2n1CCN1CCC(NCc2cc3c(cn2)OCC3)CC1 [Example 38, 1-(2-{4-[(2,3-dihydrofuro[2,3-c]pyridin-5-ylmethyl)amino]-1-piperidinyl}ethyl)-7-fluoro-2(1H)-quinoxalinone Dihydrochloride] has an MIC of at most 4 µg/mL. In the case of COc1cnc2ncc(=O)n(CCN3CCC(NCc4cc5c(cn4)OCCO5)CC3)c2c1.O=CO.O=CO [Example 51B, 1-(2-{4-[(2,3-dihydro[1,4]dioxino[2,3-c]pyridin-7-ylmethyl)amino]-1-piperidinyl}ethyl)-7-(methyloxy)pyrido[2,3-b]pyrazin-2(1H)-one diformate], the MIC is reported as at most 4 µg/mL. Molecule O=c1ccc2ncccc2n1CCN1CCC(NCc2cc3ccccc3o2)CC1 [Example 282] has an MIC of at most 4 µg/mL. COc1ccc2ncc(=O)n(CCN3C[C@H](CNCc4cc5c(cn4)OCCO5)[C@@H](O)C3)c2n1 [Example 225] was tested, and the MIC was at most 4 µg/mL. With O=C1CSc2ccc(CNC[C@@H]3C[C@H](O)CN(CCn4c(=O)ccc5ccc(F)cc54)C3)nc2N1 (racemic) [Example 158] the MIC was at most 4 µg/mL. With O=c1cnc2ccc(F)cc2n1CCN1CC[C@H](NCc2cc3c(nn2)OCCO3)[C@H](O)C1 (single isomer, unassigned) [Example 193] the MIC was at most 4 µg/mL. With COc1ccc2ncc(=O)n(CCN3C[C@H](CNCc4cc5c(cn4)OCCO5)[C@H](O)C3)c2c1 [Example 226] the MIC was at most 4 µg/mL. Work on O=c1c(F)cc2ccc(F)cc2n1CCN1CCC(NCc2cc3c(cn2)OCCO3)CC1 [Example 180] yielded an MIC of at most 4 µg/mL. Work on COc1ccc2ncc(=O)n(CCN3CCC(NCc4cc5c(cn4)OCCO5)CC3)c2n1 [Example 37, 4-(2-{4-[(2,3-dihydro[1,4]dioxino[2,3-c]pyridin-7-ylmethyl)amino]-1-piperidinyl}ethyl)-6-(methyloxy)pyrido[2,3-b]pyrazin-3(4H)-one Dihydrochloride] yielded an MIC of at most 4 µg/mL. O=c1cnc2c(F)cc(F)cc2n1CCN1CCC(NCc2cc3c(nn2)OCCO3)CC1 [Example 120] showed an MIC of at most 4 µg/mL. With O=c1ccc2ccccc2n1CCN1CCC(NCc2cc3ccccc3o2)CC1 [Example 288] the MIC was at most 4 µg/mL. O=c1cnc2ccc(F)cc2n1CCN1CCC(NCc2cc3c(cn2)OCCO3)CC1 [Example 20, 1-(2-{4-[(2,3-dihydro[1,4]dioxino[2,3-c]pyridin-7-ylmethyl)amino]-1-piperidinyl}ethyl)-7-fluoro-2(1H)-quinoxalinone Dihydrochloride] showed an MIC of at most 4 µg/mL. Molecule O=c1ccc2ncc(F)cc2n1CCN1CCC(NCc2cc3c(cn2)OCCO3)CC1 [Example 7, 1-(2-{4-[(2,3-Dihydro[1,4]dioxino[2,3-c]pyridin-7-ylmethyl)amino]-1-piperidinyl}ethyl)-7-fluoro-1,5-naphthyridin-2(1H)-one Hydrochloride] has an MIC of at most 4 µg/mL. Work on COc1ccc2ccc(=O)n(CCN3CCC(NCc4ccc5nnn(C)c5c4)CC3)c2c1 [Example 302] yielded an MIC of at most 4 µg/mL. Molecule O=c1ccc2ccc(F)cc2n1CCN1CCC(NCc2nc3ccccc3s2)CC1 [Example 287] has an MIC of at most 4 µg/mL. For Cl.O=c1ccc2ccc(F)cc2n1CCN1CCC(NCc2cc3c(cn2)OCCO3)CC1 [Example 2, 1-(2-{4-[(2,3-dihydro[1,4]dioxino[2,3-c]pyridin-7-ylmethyl)amino]-1-piperidinyl}ethyl)-7-fluoro-2(1H)-quinolinone Hydrochloride], the MIC was at most 4 µg/mL. For O=c1ccc2ccccc2n1CCN1CCC(NCc2cc3cc(Cl)ccc3s2)CC1 [Example 289], the MIC was at most 4 µg/mL. For COc1ccc2ccc(=O)n(CCN3CCC(NCc4cc5c(nn4)OCCO5)CC3)c2n1 [Example 17, 1-(2-{4-[(6,7-dihydro[1,4]dioxino[2,3-c]pyridazin-3-ylmethyl)amino]-1-piperidinyl}ethyl)-7-(methyloxy)-1,8-naphthyridin-2(1H)-one Dihydrochloride], the MIC was at most 4 µg/mL.

Same assay, conditions: ATCC 25618 / H37Rv, 144 h, read-out: MIC value, H37Rv strain (ATCC25618), Middlebrook 7H9+ADC medium, six days at 37° C., resazurin fluorescence after 48 hours
With COc1ccc2ccc(=O)n(CCN3C[C@H](CNCc4cc5c(cn4)OCCO5)[C@H](O)C3)c2c1 [Example 74, 1-[2-((3S,4S)-3-{[(2,3-dihydro[1,4]dioxino[2,3-c]pyridin-7-ylmethyl)amino]methyl}-4-hydroxy-1-pyrrolidinyl)ethyl]-7-(methyloxy)-2(1H)-quinolinone Hydrochloride] the MIC was at most 4 µg/mL. Work on COc1ccc2ccc(=O)n(CCN3C[C@@H](CNCc4ccc5c(n4)NC(=O)CO5)[C@@H](O)C3)c2c1 [Example 53, 6-({[((3R,4R)-4-hydroxy-1-{2-[7-(methyloxy)-2-oxo-1(2H)-quinolinyl]ethyl}-3-pyrrolidinyl)methyl]amino}methyl)-2H-pyrido[3,2-b][1,4]oxazin-3(4H)-one dihydrochloride] yielded an MIC of at most 4 µg/mL. In the case of O=c1ccc2ccc(F)cc2n1CCN1CC[C@@H](O)[C@@H](CNCc2cc3c(cn2)OCCO3)C1 [Example 138, 1-[2-((3S,4R)-3-{[(2,3-Dihydro[1,4]dioxino[2,3-c]pyridin-7-ylmethyl)amino]methyl}-4-hydroxy-1-piperidinyl)ethyl]-7-fluoro-2(1H)-quinolinone Dihydrochloride], the MIC is reported as at most 4 µg/mL. O=c1ccc2c(F)cc3c(c2n1CCN1CCC(NCc2cc4c(cn2)OCCO4)CC1)OCCO3 [Example 57, 10-(2-{4-[(2,3-dihydro[1,4]dioxino[2,3-c]pyridin-7-ylmethyl)amino]-1-piperidinyl}ethyl)-6-fluoro-2,3-dihydro[1,4]dioxino[2,3-h]quinolin-9(10H)-one hydrochloride] was tested, and the MIC was at most 4 µg/mL. Cc1cc(=O)n(CCN2CCC(NCc3cc4c(cn3)OCCO4)CC2)c2cc(F)ccc12 [Example 131, 1-(2-{4-[(2,3-Dihydro[1,4]dioxino[2,3-c]pyridin-7-ylmethyl)amino]-1-piperidinyl}ethyl)-7-fluoro-4-methyl-2(1H)-quinolinone Dihydrochloride] gave an MIC of at most 4 µg/mL.

Same assay, conditions: ATCC25618|H37RV, 144 h, H37Rv strain (ATCC25618), Middlebrook 7H9+ADC medium, six days at 37° C., resazurin fluorescence after 48 hours, read-out: MIC value
In the case of O=c1ccc2ncc(F)cc2n1CCN1CCC(NCc2cc3c(nn2)OCCO3)CC1 [Example 9, Hydrochloride], the MIC is reported as at most 4 µg/mL.

What follows are molecules tested on Gram-positive organisms (Staphylococcus aureus, Streptococcus pneumoniae, Streptococcus pyogenes, Enterococcus faecalis, Enterococcus faecium) and … (assay: not given). Conditions: against a strain of at least one of the organisms listed; tested in at least one exemplified salt form.
Type: cell-based
COc1ccc2ncc(=O)n(CCN3C[C@H](CNCc4ccn5ccc(=O)nc5c4)[C@H](O)C3)c2n1 [Example 272] gave an MIC of over 16 µg/mL. In the case of CC(C)(O)c1c(F)cnc2ccc(=O)n(CCN3CCC(NCc4ccc5c(n4)NC(=O)CO5)CC3)c12 [Example 183], the MIC is reported as 16 µg/mL.
